Experimental findings from patent US7834061B2, “Process for producing 1,4-dihydroxy-2-naphthoic acid” (Meiji Dairies Corporation, priority 2001, dated 2010) are described below.

Experiment [1] has as its system Human osteoblasts (SaM-1). In words: Calcification of osteoblasts (Ca content of extracellular matrix, OCPC method). It counts as cell-based. Particulars: DHNA 10^-7 M to 10^-5 M, 2 mM α-glycerophosphoric acid, culturing for 32 days, vs 0.1% DMSO control (FIG. 4). The procedure:
Human osteoblasts (SaM-1), which had been cultured from long bone periosteum of a person obtained during fracture surgery, were employed. […] SaM-1 has been known to promote calcification in the presence of 2 mM of α-glycerophosphoric acid in a 1α, 25 (OH)2D3 concentration-dependent manner (Koshihara, Y. et al.: Biochem. Biophys. Res. commun., 145: 651-657, 1987).
The above-obtained SaM-1 cells of 18 PDL (population doubling level) were inoculated into a 12-well plate, and cultured until the cells reached a confluent state. Subsequently, α-glycerophosphoric acid, which is a calcification promoting agent, was added to the resultant culture broth such that the α-glycerophosphoric acid content became 2 mM. DHNA (10^−7 M to 10^−5 M) was added to the culture broth, followed by culturing for 32 days. For a control, DMSO (a solvent) was added to the culture broth such that the DMSO content became 0.1%. […]
The Ca content of extracellular matrix was quantified by use of a kit (Calcium C Test Wako) based on the o-cresolphthalein complexone method (OCPC method) (Gitleman, H. J.: Anal. Biochem., 18: 520-531, 1967).
After completion of culturing, the resultant cells were washed with a Hanks' solution. […] Thereafter, the resultant reaction mixture was subjected to measurement by use of an absorbance meter (570 nm) (FIG. 4).

Another experiment relates to ICR male mice. Description: Animal model with osteoporosis induced by FK-506. It is filed as in vivo. To be noted: DHNA 75 μg/kg orally every day, FK-506 1 mg/kg i.p. for 10 weeks, vs control group (FK 506 (+)) (FIG. 5). The method, then: As has been known, administration of FK-506, which is known as an immunosuppressive agent, to an animal induces osteoporosis-like conditions (J. Hard Tissue Biology, 103-107, 10 (2), 2001). […] FK-506 (1 mg/kg) was intraperitoneally administered to ICR male mice (eight weeks old) for 10 consecutive weeks. During the 10-week FK-506 administration, a feed (CRF-1, product of Oriental Yeast Co., Ltd.) was arbitrarily ingested into the mice, and DHNA (75 μg/kg) which had been suspended in a 1% aqueous DMSO (dimethyl sulfoxide) solution was orally administered to each of the mice every day.

Take `O=C(O)c1cc(O)c2ccccc2c1O` [DHNA, 1,4-dihydroxy-2-naphthoic acid]: the “degree of calcification (amount of Ca)” value in experiment [1] is recorded as “promotes calcification in a concentration-dependent manner”. Besides, the bone density entry in the experiment with ICR male mice is given as “significantly higher than that of the mice in the control group”.
